# Laboratory results reported in PubChem BioAssay AID1918957 (Molecular Pharmacology Branch, DTP, NCI, 2023).
# Active and inactive are the calls of the source. The calls were made as follows: active = viability on the fitted dose curve at most 10% of control; inactive = the rest.
# System: NCI-H1876 complex spheroid viability
# Assay: Anticancer human tumor NCI-H1876 cell line growth inhibition [LSD1];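 as to IC50: spheroids exposed to compounds for one week before readout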;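 as to viability, T/C: spheroids exposed to compounds for one week before readout; 100% = DMSO vehicle-treated spheroids so lower means fewer viable cells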
# Settings: for IC50: curve of first compound; for viability, T/C: stronger effect = lower value
# Method in brief: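 Drug combinations with the LSD1 inhibitor iadademstat tested on tumor cells co-cultured as spheroids with endothelial cells and mesenchymal stem cells. Concentrations descended in half-log increments from clinical Cmax or 10 microM.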
# [1] = second compound 0.1 µM, first compound 0.000949 µM
# [2] = second compound 0.1 µM, first compound 0.003 µM
# [3] = second compound 0.1 µM, first compound 0.00949 µM
# [4] = second compound 0.1 µM, first compound 0.03 µM
# [5] = second compound 0.1 µM, first compound 0.0949 µM
# [6] = second compound 0.1 µM, first compound 0.3 µM
# [7] = second compound 0.316 µM, first compound 0.000949 µM
# [8] = second compound 0.316 µM, first compound 0.003 µM
# [9] = second compound 0.316 µM, first compound 0.00949 µM
# [10] = second compound 0.316 µM, first compound 0.03 µM
# [11] = second compound 0.316 µM, first compound 0.0949 µM
# [12] = second compound 0.316 µM, first compound 0.3 µM
# [13] = second compound 1 µM, first compound 0.000949 µM
# [14] = second compound 1 µM, first compound 0.003 µM
# [15] = second compound 1 µM, first compound 0.00949 µM
# [16] = second compound 1 µM, first compound 0.03 µM
# [17] = second compound 1 µM, first compound 0.0949 µM
# [18] = second compound 1 µM, first compound 0.3 µM
# [19] = second compound 3.16 µM, first compound 0.000949 µM
# [20] = second compound 3.16 µM, first compound 0.003 µM
# [21] = second compound 3.16 µM, first compound 0.00949 µM
# [22] = second compound 3.16 µM, first compound 0.03 µM
# [23] = second compound 3.16 µM, first compound 0.0949 µM
# [24] = second compound 3.16 µM, first compound 0.3 µM
# [25] = second compound 10 µM, first compound 0.000949 µM
# [26] = second compound 10 µM, first compound 0.003 µM
# [27] = second compound 10 µM, first compound 0.00949 µM
# [28] = second compound 10 µM, first compound 0.03 µM
# [29] = second compound 10 µM, first compound 0.0949 µM
# [30] = second compound 10 µM, first compound 0.3 µM
smiles,measurement,setting,value
CC[C@@]1(O)C(=O)OCc2c1cc1n(c2=O)Cc2cc3c(CN(C)C)c(O)ccc3nc2-1 + NC1CCC(NC2CC2c2ccccc2)CC1,IC50,second compound 0.1 µM,1.61 nM
same,IC50,second compound 0.316 µM,2.15 nM
same,IC50,second compound 1 µM,2.14 nM
same,IC50,second compound 3.16 µM,2.18 nM
same,IC50,second compound 10 µM,2.02 nM
same,"viability, T/C","second compound 0.1 µM, first compound 0.000316 µM",105%
same,outcome,"second compound 0.1 µM, first compound 0.001 µM",inactive
same,"viability, T/C","second compound 0.1 µM, first compound 0.00316 µM",33.1%
same,"viability, T/C","second compound 0.1 µM, first compound 0.01 µM",23.1%
same,"viability, T/C","second compound 0.1 µM, first compound 0.0316 µM",12.1%
same,"viability, T/C","second compound 0.1 µM, first compound 0.1 µM",16.7%
same,"viability, T/C","second compound 0.316 µM, first compound 0.000316 µM",110%
same,"viability, T/C","second compound 0.316 µM, first compound 0.001 µM",94.2%
same,"viability, T/C","second compound 0.316 µM, first compound 0.00316 µM",27.5%
same,"viability, T/C","second compound 0.316 µM, first compound 0.01 µM",29.9%
same,"viability, T/C","second compound 0.316 µM, first compound 0.0316 µM",17.3%
same,"viability, T/C","second compound 0.316 µM, first compound 0.1 µM",14.7%
same,"viability, T/C","second compound 1 µM, first compound 0.000316 µM",113%
same,"viability, T/C","second compound 1 µM, first compound 0.001 µM",92.3%
same,"viability, T/C","second compound 1 µM, first compound 0.00316 µM",27.6%
same,"viability, T/C","second compound 1 µM, first compound 0.01 µM",31.8%
same,"viability, T/C","second compound 1 µM, first compound 0.0316 µM",18.4%
same,"viability, T/C","second compound 1 µM, first compound 0.1 µM",8.81%
same,"viability, T/C","second compound 3.16 µM, first compound 0.000316 µM",112%
same,"viability, T/C","second compound 3.16 µM, first compound 0.001 µM",102%
same,"viability, T/C","second compound 3.16 µM, first compound 0.00316 µM",25%
same,"viability, T/C","second compound 3.16 µM, first compound 0.01 µM",19.3%
same,"viability, T/C","second compound 3.16 µM, first compound 0.0316 µM",19%
same,"viability, T/C","second compound 3.16 µM, first compound 0.1 µM",9.21%
same,"viability, T/C","second compound 10 µM, first compound 0.000316 µM",112%
same,"viability, T/C","second compound 10 µM, first compound 0.001 µM",90.3%
same,"viability, T/C","second compound 10 µM, first compound 0.00316 µM",24.2%
same,"viability, T/C","second compound 10 µM, first compound 0.01 µM",24.3%
same,"viability, T/C","second compound 10 µM, first compound 0.0316 µM",20%
same,"viability, T/C","second compound 10 µM, first compound 0.1 µM",19.4%
CCc1c2c(nc3ccc(O)cc13)-c1cc3c(c(=O)n1C2)COC(=O)[C@]3(O)CC + NC1CCC(NC2CC2c2ccccc2)CC1,IC50,second compound 0.1 µM,< 0.949 nM
same,IC50,second compound 0.316 µM,< 0.949 nM
same,IC50,second compound 1 µM,< 0.949 nM
same,IC50,second compound 3.16 µM,< 0.949 nM
same,IC50,second compound 10 µM,< 0.949 nM
same,"viability, T/C",[1],8.41%
same,"viability, T/C",[2],6.69%
same,"viability, T/C",[3],4.51%
same,"viability, T/C",[4],17%
same,"viability, T/C",[5],0.42%
same,"viability, T/C",[6],0.51%
same,"viability, T/C",[7],9.1%
same,"viability, T/C",[8],7.39%
same,"viability, T/C",[9],26.4%
same,"viability, T/C",[10],34.6%
same,"viability, T/C",[11],0.46%
same,"viability, T/C",[12],0.47%
same,"viability, T/C",[13],9.13%
same,"viability, T/C",[14],7.08%
same,"viability, T/C",[15],3.54%
same,"viability, T/C",[16],16.9%
same,"viability, T/C",[17],0.38%
same,"viability, T/C",[18],0.41%
same,"viability, T/C",[19],7.88%
same,"viability, T/C",[20],7%
same,"viability, T/C",[21],4.05%
same,"viability, T/C",[22],8.64%
same,"viability, T/C",[23],0.31%
same,"viability, T/C",[24],0.45%
same,"viability, T/C",[25],9.76%
same,"viability, T/C",[26],7.48%
same,"viability, T/C",[27],31.4%
same,"viability, T/C",[28],8.78%
same,"viability, T/C",[29],15.6%
same,"viability, T/C",[30],0.65%
COc1cc(C2c3cc4c(cc3C(OC3OC5COC(C)OC5C(O)C3O)C3COC(=O)C23)OCO4)cc(OC)c1O (stereo not given) + NC1CCC(NC2CC2c2ccccc2)CC1,IC50,second compound 0.1 µM,61.4 nM
same,IC50,second compound 0.316 µM,49.2 nM
same,IC50,second compound 1 µM,48.1 nM
same,IC50,second compound 3.16 µM,50.9 nM
same,IC50,second compound 10 µM,43.9 nM
same,"viability, T/C",[3],91.7%
same,"viability, T/C",[4],79.6%
same,"viability, T/C",[5],31.1%
same,"viability, T/C",[6],23.5%
same,"viability, T/C","second compound 0.1 µM, first compound 0.949 µM",12.2%
same,"viability, T/C","second compound 0.1 µM, first compound 3 µM",11.8%
same,"viability, T/C",[9],89%
same,"viability, T/C",[10],68.6%
same,"viability, T/C",[11],24.9%
same,"viability, T/C",[12],22.3%
same,"viability, T/C","second compound 0.316 µM, first compound 0.949 µM",19.2%
same,"viability, T/C","second compound 0.316 µM, first compound 3 µM",10.7%
same,"viability, T/C",[15],91.7%
same,"viability, T/C",[16],66.4%
same,"viability, T/C",[17],26%
same,"viability, T/C",[18],22%
same,"viability, T/C","second compound 1 µM, first compound 0.949 µM",14.4%
same,"viability, T/C","second compound 1 µM, first compound 3 µM",18.9%
same,"viability, T/C",[21],94.5%
same,"viability, T/C",[22],64.8%
same,"viability, T/C",[23],29.7%
same,"viability, T/C",[24],29.5%
same,"viability, T/C","second compound 3.16 µM, first compound 0.949 µM",18.2%
same,"viability, T/C","second compound 3.16 µM, first compound 3 µM",13.7%
same,"viability, T/C",[27],82.7%
same,"viability, T/C",[28],62.5%
same,"viability, T/C",[29],24.3%
same,"viability, T/C",[30],23.4%
same,"viability, T/C","second compound 10 µM, first compound 0.949 µM",18.1%
same,"viability, T/C","second compound 10 µM, first compound 3 µM",14.2%
Nc1ccn(C2OC(CO)C(O)C2(F)F)c(=O)n1 (stereo not given) + NC1CCC(NC2CC2c2ccccc2)CC1,IC50,second compound 0.1 µM,6.89 nM
same,IC50,second compound 0.316 µM,6.69 nM
same,IC50,second compound 1 µM,6.77 nM
same,IC50,second compound 3.16 µM,6.75 nM
same,IC50,second compound 10 µM,6.25 nM
same,"viability, T/C",[1],111%
same,"viability, T/C",[2],101%
same,"viability, T/C",[3],30.3%
same,"viability, T/C",[4],22.3%
same,"viability, T/C",[5],22.9%
same,"viability, T/C",[6],10.8%
same,"viability, T/C",[7],104%
same,"viability, T/C",[8],96%
same,"viability, T/C",[9],29.7%
same,"viability, T/C",[10],18.1%
same,"viability, T/C",[11],11.7%
same,"viability, T/C",[12],9.66%
same,"viability, T/C",[13],111%
same,"viability, T/C",[14],96.7%
same,"viability, T/C",[15],30.3%
same,"viability, T/C",[16],18.6%
same,"viability, T/C",[17],12.1%
same,"viability, T/C",[18],11.3%
same,"viability, T/C",[19],110%
same,"viability, T/C",[20],107%
same,"viability, T/C",[21],26.2%
same,"viability, T/C",[22],23.2%
same,"viability, T/C",[23],17.9%
same,"viability, T/C",[24],9.56%
same,"viability, T/C",[25],109%
same,"viability, T/C",[26],90.8%
same,"viability, T/C",[27],26.4%
same,"viability, T/C",[28],23.5%
same,"viability, T/C",[29],17.8%
same,"viability, T/C",[30],10.5%
